Data published in patent US9944613B2, “Fumagillol spirocyclic compounds and fused bicyclic compounds and methods of making and using same” (Zafgen, Inc., priority 2015, dated 2018).
Structures can show the parent of a compound that is named as a salt. Where two headings read alike, the source gives them in different places.

Experiments:
recombinant human MetAP2 = target: T1, recombinant human MetAP2 (Homo sapiens, UniProt P50579); experiment: Inhibition of recombinant human MetAP2 activity (MAS peptide / amino acid oxidase / Amplex assay); format: biochemical
T1 construct: Flag; made in house
Protocol: Compounds are tested for their capacity to inhibit recombinant human MetAP2 activity using the following assay.
Flag tagged Human recombinant MetAP2 expressed and isolated for use as the enzyme source. 10 mM stock solutions of compounds were prepared in 100% DMSO and further diluted in 100% DMSO required concentration to 1 mM stocks. The stock compound solutions and DMSO vehicle controls were diluted to target final compound concentrations using assay buffer to a final concentration of 50 mM HEPES containing 100 mM NaCl, pH adjusted to 7.5. The MAS peptide was formulated to a 7.5 mM stock in distilled water and prior to use further diluted 1:4. […] 40 μl of enzyme was mixed with 100 μl of MnCl2 then further diluted in assay buffer to a final concentration of 16 μg/ml. To test for compound effect on MetAP2 enzyme activity, 5 μl of test compound, 10 μl of MAS substrate/amino acid oxidase mixture, 10 μl of MetAP2 was added to test wells in a 384 well black plate with blank wells containing no enzyme, replaced with 10 μl of assay buffer. All compounds were tested in duplicate on two occasions on the same day.
The plate was sealed with a TopSeal A cover and mixed briefly on an orbital mixer at 900 rpm. The plate was incubated for a further 25 minutes at 25° C. A 5× stock of Amplex buffer was prepared (0.25M sodium phosphate, pH 7.4) and stored at 4° C. When preparing for use the stock was diluted with distilled water. […] Horse radish peroxidase was diluted in […] of Amplex buffer, 100 μl of this was combined with 50 μl of Amplex Ultrared in […] of 1× Amplex buffer to generate sufficient detection reagent for a 384 well plate. 25 μl detection reagent was added to each well of the test plate, which was re-sealed and mixed briefly on an orbital shaker. The plate was transferred to an Envision Multi-label reader and RFU measured corresponding to excitation 531 nm and emission 595 nm. At the end of the MetAP2 incubation 25 μl Amplex/HRP mixture per well was added and the plate read plate on a plate reader.

[1] = system: Diet Induced Obese (DIO) C57BL/6 mice; experiment: 10 day DIO mouse model, weight loss vs. vehicle; format: in vivo; settings: 240 h, 0.3 mpk sc once a day for 10 days
Excerpt: The objective of this study design was to investigate the efficacy of disclosed compounds in a 10 day DIO mouse model. Effects on body weight, food intake, hematology and blood chemistry were the primary readouts of this study design. Male, Diet Induced Obese (DIO) C57BL/6 mice, 19-21 weeks of age (13-15 weeks on high fat diet) were ordered from a certified vendor and upon receipt were housed on irradiated corncob bedding in micro-isolator cages on a 12-hour light-dark cycle (0700-1900) at 68-74° F. and 30-70% humidity. Mice were fed Research Diets D12492 (60% Kcal fat, 20% Kcal carbohydrate and 20% protein) and provided water ad libitum. DIO mice were received and housed in the facility for approximately two weeks prior to the start of test article administration. On Day −4 or −3, mice were randomized into study groups based on body weight and body weights were continued to be recorded daily for the duration of the study. Daily food intake was assessed starting on Study Day −2 by weighing of the food with hopper together to avoid loss of food in transfer.
(§1) Compounds were formulated into a 100% DMSO stock (at 9 mg/mL) prior to the start, and further diluted into the target working concentration using the vehicle of 10% DMSO in water. Prior to test article administration, starting on Day −3 a dosing acclimation occured with all animals receiving a subcutaneous injection of vehicle (10% DMSO) only for 3 days. Starting on Day 1, test compounds or vehicle were administered based on individual body weight, subcutaneously, once a day for 10 days. All mice were sacrificed on Day 11, 24 hours following the final dosing on Day 10. After sacrifice, whole blood was collected and analyzed for hematology and blood chemistry parameters.
(§2) Compounds were tested for weight loss vs. vehicle at 0.3 and 1.0 mpk sc (mg per kg animal weight delivered subcutaneously), and the results are shown in Table 2 below.

[2] = system: rat DIO model (Sprague Dawley rats on high fat diet); experiment: 11 day rat DIO model, weight loss vs. vehicle; format: in vivo; settings: for inhibition in vivo at 0.3 mg/kg: Rattus norvegicus, 264 h, 0.3 mpk sc once a day for 11 days; for Rat @ 1.0 mpk sc (%): 1.0 mpk sc once a day for 11 days
Excerpt: The objective of this study design is to investigate the efficacy of disclosed compounds in an 11 day rat DIO model used to screen compounds for pharmacologic efficacy on endpoints related to obesity and metabolism. Effects on body weight, food intake, hematology and blood chemistries were the primary readouts of this study design. Male Sprague Dawley rats, approximately 8 weeks of age, were ordered from a certified vendor and housed on irradiated corncob bedding in micro-isolator cages, on a 12-hour light-dark cycle (0700-1900) at 68-74° F. and 30-70% humidity. Rats were fed Research Diets D12451 (45% High Fat) and provided water ad libitum. Rats were received and housed in the facility for at least two or three weeks prior to start of test article administration. On Day −4 or −3, rats were randomized into study groups based on body weight and body weights were continued to be recorded daily for the duration of the study. Daily food intake was assessed starting on Study Day −2 by weighing the hopper including the food to avoid loss of food in transfer.
as §1, with “for 11” for “for 10”, “All animals” for “All mice”, “11, approximately 2” for “11, 24”, “Day 11.” for “Day 10.”
as §2

[3] = Flag tagged human recombinant MetAP2, 25 minutes at 25° C., read-out: MetAP2 IC50

T1 sequence (P50579 whole entry): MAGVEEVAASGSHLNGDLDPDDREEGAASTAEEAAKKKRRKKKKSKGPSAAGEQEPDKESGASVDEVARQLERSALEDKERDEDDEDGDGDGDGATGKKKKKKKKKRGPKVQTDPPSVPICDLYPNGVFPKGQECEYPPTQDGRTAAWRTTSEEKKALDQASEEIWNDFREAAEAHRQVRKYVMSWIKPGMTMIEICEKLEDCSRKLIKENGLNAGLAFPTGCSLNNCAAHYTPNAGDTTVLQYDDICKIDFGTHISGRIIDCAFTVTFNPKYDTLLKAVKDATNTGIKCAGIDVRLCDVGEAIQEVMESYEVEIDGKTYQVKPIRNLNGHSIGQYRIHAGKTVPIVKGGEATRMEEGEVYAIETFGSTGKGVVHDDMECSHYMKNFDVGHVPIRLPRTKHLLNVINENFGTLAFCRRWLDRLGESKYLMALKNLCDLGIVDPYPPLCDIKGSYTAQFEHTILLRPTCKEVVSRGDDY

IC50 (recombinant human MetAP2; [3])	SMILES	inhibition in vivo at 0.3 mg/kg [1]	inhibition in vivo at 0.3 mg/kg [2]	IC50 (recombinant human MetAP2)	Rat @ 1.0 mpk sc (%) [2]
< 50 nM	CO[C@@H]1[C@H](OC(=O)N2CC3(CCOC3)C2)CC[C@]2(CO2)[C@H]1[C@@]1(C)O[C@@H]1CC=C(C)C [Example 6, (3R,4S,5S,6R)-5-methoxy-4-((2R,3R)-2-methyl-3-(3-methylbut-2-enyl)oxiran-2-yl)-1-oxaspiro[2.5]octan-6-yl 6-oxa-2-azaspiro[3.4]octane-2-carboxylate]	13.9%	2.7%	–	–
< 50 nM	CO[C@@H]1[C@H](OC(=O)N2CC3(CCOCC3)C2)CC[C@]2(CO2)[C@H]1[C@@]1(C)O[C@@H]1CC=C(C)C [Example 3, (3R,4S,5S,6R)-5-methoxy-4-((2R,3R)-2-methyl-3-(3-methylbut-2-enyl)oxiran-2-yl)-1-oxaspiro[2.5]octan-6-yl 7-oxa-2-azaspiro[3.5]nonane-2-carboxylate]	18.9%	7.9%	–	–
50 to 500 nM	CO[C@@H]1[C@H](OC(=O)N2CCC3(CCOC3)CC2)CC[C@]2(CO2)[C@H]1[C@@]1(C)O[C@@H]1CC=C(C)C [Example 24, (3R,4S,5S,6R)-5-methoxy-4-((2R,3R)-2-methyl-3-(3-methylbut-2-enyl)oxiran-2-yl)-1-oxaspiro[2.5]octan-6-yl 2-oxa-8-azaspiro[4.5]decane-8-carboxylate]	20.5%	6.3%	–	–
< 50 nM	CO[C@@H]1[C@H](OC(=O)N2CC3(CN(C)C3)C2)CC[C@]2(CO2)[C@H]1[C@@]1(C)O[C@@H]1CC=C(C)C [Example 12, (3R,4S,5S,6R)-5-methoxy-4-((2R,3R)-2-methyl-3-(3-methylbut-2-enyl)oxiran-2-yl)-1-oxaspiro[2.5]octan-6-yl 6-methyl-2,6-diazaspiro[3.3]heptane-2-carboxylate]	1.8%	–	–	–
< 50 nM	CO[C@@H]1[C@H](OC(=O)N2CC3(CCN(C)CC3)C2)CC[C@]2(CO2)[C@H]1[C@@]1(C)O[C@@H]1CC=C(C)C [Example 8, (3R,4S,5S,6R)-5-methoxy-4-((2R,3R)-2-methyl-3-(3-methylbut-2-enyl)oxiran-2-yl)-1-oxaspiro[2.5]octan-6-yl 7-methyl-2,7-diazaspiro[3.5]nonane-2-carboxylate formate]	6.2%	–	–	–
50 to 500 nM	CO[C@@H]1[C@H](OC(=O)N2CCC3(CCOCC3)CC2)CC[C@]2(CO2)[C@H]1[C@@]1(C)O[C@@H]1CC=C(C)C [Example 1, (3R,4S,5S,6R)-5-methoxy-4-((2R,3R)-2-methyl-3-(3-methylbut-2-enyl)oxiran-2-yl)-1-oxaspiro[2.5]octan-6-yl 3-oxa-9-azaspiro[5.5]undecane-9-carboxylate]	17%	10.3%	–	16.3%

Continued, molecule first:

SMILES	IC50 (recombinant human MetAP2; [3])	inhibition in vivo at 0.3 mg/kg [1]	inhibition in vivo at 0.3 mg/kg [2]	IC50 (recombinant human MetAP2)	Rat @ 1.0 mpk sc (%) [2]
CO[C@@H]1[C@H](OC(=O)N2CCC3(CC2)COC3)CC[C@]2(CO2)[C@H]1[C@@]1(C)O[C@@H]1CC=C(C)C [Example 5, (3R,4S,5S,6R)-5-methoxy-4-((2R,3R)-2-methyl-3-(3-methylbut-2-enyl)oxiran-2-yl)-1-oxaspiro[2.5]octan-6-yl 2-oxa-7-azaspiro[3.5]nonane-7-carboxylate]	–	16.7%	6.6%	< 50 nM	–
CO[C@@H]1[C@H](OC(=O)N2C[C@H]3COC[C@H]3C2)CC[C@]2(CO2)[C@H]1[C@@]1(C)O[C@@H]1CC=C(C)C [Example 13, (3aR,6aS)-((3R,4S,5S,6R)-5-methoxy-4-((2R,3R)-2-methyl-3-(3-methylbut-2-enyl)oxiran-2-yl)-1-oxaspiro[2.5]octan-6-yl) tetrahydro-1H-furo[3,4-c]pyrrole-5(3H)-carboxylate]	–	16.9%	3.1%	–	–
CO[C@@H]1[C@H](OC(=O)N2CC3(C2)CS(=O)(=O)C3)CC[C@]2(CO2)[C@H]1[C@@]1(C)O[C@@H]1CC=C(C)C [Example 23, (3R,4S,5S,6R)-5-methoxy-4-((2R,3R)-2-methyl-3-(3-methylbut-2-enyl)oxiran-2-yl)-1-oxaspiro[2.5]octan-6-yl 2-thia-6-azaspiro[3.3]heptane 2,2-dioxide-6-carboxylate]	–	2%	–	50 to 500 nM	–
CO[C@@H]1[C@H](OC(=O)N2CCC3(CCN(CC(F)F)CC3)CC2)CC[C@]2(CO2)[C@H]1[C@@]1(C)O[C@@H]1CC=C(C)C [Example 14, (3R,4S,5S,6R)-5-methoxy-4-((2R,3R)-2-methyl-3-(3-methylbut-2-enyl)oxiran-2-yl)-1-oxaspiro[2.5]octan-6-yl 9-(2,2-difluoroethyl)-3,9-diazaspiro[5.5]undecane-3-carboxylate]	–	23.3%	11.6%	–	–
CO[C@@H]1[C@H](OC(=O)N2CC3(CNC(=O)C3)C2)CC[C@]2(CO2)[C@H]1[C@@]1(C)O[C@@H]1CC=C(C)C [Example 25, (3R,4S,5S,6R)-5-methoxy-4-((2R,3R)-2-methyl-3-(3-methylbut-2-enyl)oxiran-2-yl)-1-oxaspiro[2.5]octan-6-yl 7-oxo-2,6-diazaspiro[3.4]octane-2-carboxylate]	–	2%	–	< 50 nM	–
CO[C@@H]1[C@H](OC(=O)N2C[C@@H]3[C@H](C2)[C@H]3C(N)=O)CC[C@]2(CO2)[C@H]1[C@@]1(C)O[C@@H]1CC=C(C)C [Example 34, (1R,5S,6R)-(3R,4S,5S,6R)-5-methoxy-4-((2R,3R)-2-methyl-3-(3-methylbut-2-en-1-yl)oxiran-2-yl)-1-oxaspiro[2.5]octan-6-yl 6-carbamoyl-3-azabicyclo[3.1.0]hexane-3-carboxylate]	< 50 nM	3%	–	–	–
CO[C@@H]1[C@H](OC(=O)NC2CC3(C2)CN(C)C3)CC[C@]2(CO2)[C@H]1[C@@]1(C)O[C@@H]1CC=C(C)C [Example 10, (3R,4S,5S,6R)-5-methoxy-4-((2R,3R)-2-methyl-3-(3-methylbut-2-enyl)oxiran-2-yl)-1-oxaspiro[2.5]octan-6-yl 2-methyl-2-azaspiro[3.3]heptan-6-ylcarbamate formate]	< 50 nM	8.4%	2%	–	7.2%
